Reference: PMC9944328 (Nature Communications, 2023)

Tested on: SSTR2 mutants
Assay: SSTRs Gi-mediated cAMP inhibition, GloSensor, HEK293, 5 μM forskolin, 15 min room temperature (SSTR2 mutants)
Type: cell-based, human
Conditions: for Fold of WT: Gi signaling EC50
Method: The levels of the intracellular 3′, 5′-cyclic AMP (cAMP) were measured by the GloSensor cAMP assay (Promega) as described in the previous studies[28],[41] which has been widely used. The human full-length SSTRs and mutants were cloned into the pcDNA3.1+ vector with a HA signal sequence followed by a Flag tag at the N-terminus. HEK293 cells (ATCC, CRL-1573) were seeded into 6-well microplates at a density of 1.0 × 10^6 cells/well and cultured for 24 h at 37 °C with 5% CO2. Cells were then co-transfected with SSTR wild-type or mutants and GloSensor plasmids. After 24 h of transfection, the cells were dissociated with TrypLE™ Express Enzyme (1X) (Thermo Fisher Scientific) and collected by centrifugation at 500 × g for 5 min. Then the collected cells were suspended in Hank’s balanced salt solution [HBSS (Thermo Fisher Scientific)] supplemented with […] (YEASEN), and then the suspension cells were seeded into 96-well plates with 90 μl/well. After incubating at room temperature for 40 min, 5 μM forskolin and ligands diluted in HBSS were added to each well and the plates were incubated at room temperature for 15 min. […] were measured using the Synergy H1 microplate reader (BioTek) and the data presented are means of at least three independent experiments.

SMILES: N#Cc1cccc(-c2ccc3ncc(-c4cc(F)cc(F)c4)c(N4CCC(N)CC4)c3c2)c1O [paltusotine]
- Activation potency of mutant (D295(7.36) substituted with a bulkier side chain, SSTR2): reduced the activation potency
- Bottom (best-fit value), cAMP inhibition (D295A-1 (run 1)): -5.811
- LogEC50 (best-fit value), cAMP inhibition (D295A-1 (run 1)): -7.797
- Span (best-fit value), cAMP inhibition (D295A-1 (run 1)): 125.1
- Top (best-fit value), cAMP inhibition (D295A-1 (run 1)): 119.3
- Bottom (best-fit value), cAMP inhibition (D295A-2 (run 2)): -4.778
- LogEC50 (best-fit value), cAMP inhibition (D295A-2 (run 2)): -7.798
- Span (best-fit value), cAMP inhibition (D295A-2 (run 2)): 119.6
- Top (best-fit value), cAMP inhibition (D295A-2 (run 2)): 114.8
- Bottom (best-fit value), cAMP inhibition (D295A-3 (run 3)): -4.901
- LogEC50 (best-fit value), cAMP inhibition (D295A-3 (run 3)): -7.743
- Span (best-fit value), cAMP inhibition (D295A-3 (run 3)): 121.4
- Top (best-fit value), cAMP inhibition (D295A-3 (run 3)): 116.5
- Bottom (best-fit) (D295F, run 1): -4.815
- LogEC50 (D295F, run 1): -9.49
- Span (best-fit) (D295F, run 1): 83.08
- Top (best-fit) (D295F, run 1): 78.27
- Bottom (best-fit) (D295F, run 2): -4.16
- LogEC50 (D295F, run 2): -9.689
- Span (best-fit) (D295F, run 2): 84.37
- Top (best-fit) (D295F, run 2): 80.21
- Bottom (best-fit) (D295F, run 3): 9.942
- LogEC50 (D295F, run 3): -8.808
- Span (best-fit) (D295F, run 3): 67.74
- Top (best-fit) (D295F, run 3): 77.68
- Bottom (best-fit value) (F208A-1 (run 1)): 6.193
- LogEC50 (best-fit value) (F208A-1 (run 1)): -7.826
- Span (best-fit value) (F208A-1 (run 1)): 90.63
- Top (best-fit value) (F208A-1 (run 1)): 96.82
- Bottom (best-fit value) (F208A-2 (run 2)): 3.33
- LogEC50 (best-fit value) (F208A-2 (run 2)): -7.007
- Span (best-fit value) (F208A-2 (run 2)): 88.37
- Top (best-fit value) (F208A-2 (run 2)): 91.7
- Bottom (best-fit value) (F208A-3 (run 3)): -2.358
- LogEC50 (best-fit value) (F208A-3 (run 3)): -7.101
- Span (best-fit value) (F208A-3 (run 3)): 89.17
- Top (best-fit value) (F208A-3 (run 3)): 86.81
- Bottom (best-fit value) (F265A-1 (run 1)): -8.311
- LogEC50 (best-fit value) (F265A-1 (run 1)): -7.946
- Span (best-fit value) (F265A-1 (run 1)): 113.6
- Top (best-fit value) (F265A-1 (run 1)): 105.3
- Bottom (best-fit value) (F265A-2 (run 2)): -6.152
- LogEC50 (best-fit value) (F265A-2 (run 2)): -7.834
- Span (best-fit value) (F265A-2 (run 2)): 121
- Top (best-fit value) (F265A-2 (run 2)): 114.8
- Bottom (best-fit value) (F265A-3 (run 3)): -8.585
- LogEC50 (best-fit value) (F265A-3 (run 3)): -8.008
- Span (best-fit value) (F265A-3 (run 3)): 129.6
- Top (best-fit value) (F265A-3 (run 3)): 121
- Bottom (best-fit value) (F272A-1 (run 1)): 9.906
- LogEC50 (best-fit value), cAMP inhibition (F272A-1 (run 1)): -7.753
- Span (best-fit value), cAMP inhibition (F272A-1 (run 1)): 47.19
- Top (best-fit value) (F272A-1 (run 1)): 57.1
- Bottom (best-fit value) (F272A-2 (run 2)): 0.969
- LogEC50 (best-fit value), cAMP inhibition (F272A-2 (run 2)): -7.573
- Span (best-fit value), cAMP inhibition (F272A-2 (run 2)): 51.72
- Top (best-fit value) (F272A-2 (run 2)): 52.69
- Bottom (best-fit value) (F272A-3 (run 3)): 2.026
- LogEC50 (best-fit value), cAMP inhibition (F272A-3 (run 3)): -6.838
- Span (best-fit value), cAMP inhibition (F272A-3 (run 3)): 59.81
- Top (best-fit value) (F272A-3 (run 3)): 61.84
- Bottom (best-fit value), cAMP inhibition (F294A-1 (run 1)): 3.955
- LogEC50 (best-fit value), cAMP inhibition (F294A-1 (run 1)): -8.447
- Span (best-fit value), cAMP inhibition (F294A-1 (run 1)): 85.58
- Top (best-fit value), cAMP inhibition (F294A-1 (run 1)): 89.53
- Bottom (best-fit value), cAMP inhibition (F294A-2 (run 2)): -11.05
- LogEC50 (best-fit value), cAMP inhibition (F294A-2 (run 2)): -8.376
- Span (best-fit value), cAMP inhibition (F294A-2 (run 2)): 101.1
- Top (best-fit value), cAMP inhibition (F294A-2 (run 2)): 90.09
- Bottom (best-fit value), cAMP inhibition (F294A-3 (run 3)): 15.03
- LogEC50 (best-fit value), cAMP inhibition (F294A-3 (run 3)): -9.824
- Span (best-fit value), cAMP inhibition (F294A-3 (run 3)): 106.4
- Top (best-fit value), cAMP inhibition (F294A-3 (run 3)): 121.4
- Bottom (best-fit) (F294Y, run 1): 11.7
- LogEC50 (F294Y, run 1): -9.133
- Span (best-fit) (F294Y, run 1): 95.55
- Top (best-fit) (F294Y, run 1): 107.3
- Bottom (best-fit) (F294Y, run 2): 3.363
- LogEC50 (F294Y, run 2): -9.003
- Span (best-fit) (F294Y, run 2): 99.71
- Top (best-fit) (F294Y, run 2): 103.1
- Bottom (best-fit) (F294Y, run 3): -9.817
- LogEC50 (F294Y, run 3): -9.17
- Span (best-fit) (F294Y, run 3): 128.4
- Top (best-fit) (F294Y, run 3): 118.6
- Fold of WT (SSTR2 D295(7.36)A): 1.30
- Fold of WT (SSTR2 F127(3.37)A): 0.54
- Fold of WT (SSTR2 F208(5.38)A): 34.16
- Fold of WT (SSTR2 F265(6.44)A): 6.35
- Fold of WT (SSTR2 F272A): 33.58
- Fold of WT (SSTR2 F294(7.35)A): 1.40
- Fold of WT (SSTR2 I130(3.40)A): 10.09
- Fold of WT (SSTR2 I195(45.52)A): 44.36
- Fold of WT (SSTR2 K291(7.32)A): 2.78
- Fold of WT (SSTR2 L99(2.60)A): 9.09
- Fold of WT (SSTR2 N276(6.55)A): 0.88
- Fold of WT (SSTR2 P220(5.50)A): 1.71
- Fold of WT (SSTR2 Q102(2.63)A): 16.51
- Fold of WT (SSTR2 T194(45.51)A): 51.98
- Fold of WT (SSTR2 V103(2.64)A): 17.54
- Fold of WT (SSTR2 W269(6.48)A): 0.23
